This passage reports Kd results from patent publication US20100113291A1 (CENTRE NATIONAL DE LA RECHERCHE SCIENTIFIQUE, priority 2006, published 2010).

As usually defined, the Kd is the free concentration of one partner at which half of the binding sites on the other are occupied at equilibrium, for simple one-to-one binding.

The target of this experiment is T1, MabA-wt (Mycobacterium tuberculosis, UniProt P9WGT3).
T1 construct: made in house; host or cells: Escherichia coli
The experiment is classed as binding. The settings on record: spectrofluorimetry; read-out: KD for the cofactor.

T1 sequence (P9WGT3 whole entry): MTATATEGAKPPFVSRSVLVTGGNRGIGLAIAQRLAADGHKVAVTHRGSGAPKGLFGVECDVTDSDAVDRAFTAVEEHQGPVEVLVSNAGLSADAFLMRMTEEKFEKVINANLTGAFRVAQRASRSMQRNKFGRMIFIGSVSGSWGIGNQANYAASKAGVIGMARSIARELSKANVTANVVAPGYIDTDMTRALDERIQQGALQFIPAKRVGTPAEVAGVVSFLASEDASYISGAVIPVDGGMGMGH

In the case of `NC(=O)C1=CN([C@@H]2O[C@H](COP(=O)(O)OP(=O)(O)OC[C@H]3O[C@@H](n4cnc5c(N)ncnc54)[C@H](OP(=O)(O)O)[C@@H]3O)[C@@H](O)[C@H]2O)C=CC1` [NADPH], the Kd was 8.7 µM.
